Tested on: BRAF mutants (Class 1, Class 2 and Class 3)
Assay: targeted degradation of BRAF mutants (summary of FIGS. 4-10)
Assay type: cell-based
Settings: BRAF mutants sensitive (Class 1) and insensitive (Class 2 and Class 3) to vemurafenib

CCCS(=O)(=O)Nc1ccc(F)c(C(=O)c2c[nH]c3ncc(-c4ccc(N5CCN(CC(=O)N[C@H](C(=O)N6C[C@H](O)C[C@H]6C(=O)NCc6ccc(-c7scnc7C)cc6)C(C)(C)C)CC5)cc4)cc23)c1F [compound 512, (2S,4R)-1-((S)-2-(2-(4-(4-(3-(2,6-difluoro-3-(propylsulfonamido)benzoyl)-1H-pyrrolo[2,3-b]pyridin-5-yl)phenyl)piperazin-1-yl)acetamido)-3,3-dimethylbutanoyl)-4-hydroxy-N-(4-(4-methylthiazol-5-yl)benzyl)pyrrolidine-2-carboxamide]
targeted degradation of BRAF mutants: induces targeted degradation of BRAF mutants sensitive (Class 1) and insensitive (Class 2 and Class 3) to vemurafenib
